Data as given in ChEMBL document CHEMBL3259589, “Synthesis and radical-scavenging activity of a dimethyl catechin analogue” (Bioorg Med Chem Lett, 2014).

Test: Antioxidant activity assessed as galvinoxyl free radical scavenging activity measured as second order rate constant by spectrophotometry
Assay type: functional

SMILES: Oc1cc(O)c2c(c1)O[C@H](c1ccc(O)c(O)c1)[C@@H](O)C2
- K (10'1mol/dm3/s): 3.87
